Test results: the supplement of paper PMC13380429

Assays:
Details in all cases: 72 h
[1] = system: Caco-2; test: relative viability EC50 (midpoint between 100% and the lowest measured viability); higher = less toxic
[2] = system: Vero E6; test: as above
[3] = system: HepG2; test: as above
[4] = system: Calu-3; test: as above
[5] = system: Caco-2; test: drug sensitivity score (DSS) for viability; higher = more toxic; extreme values may be limits of the assay
[6] = system: Vero E6; test: as above
[7] = system: HepG2; test: as above
[8] = system: Calu-3; test: as above
[9] = system: Caco-2; test: cell viability relative to DMSO; higher = less toxic
[10] = system: Vero E6; test: as above
[11] = system: HepG2; test: as above
[12] = system: Calu-3; test: as above
[13] = system: U2OS; test: relative viability EC50 (midpoint between 100% and the lowest measured viability); higher = less toxic
[14] = system: U2OS; test: drug sensitivity score (DSS) for viability; higher = more toxic; extreme values may be limits of the assay
[15] = system: U2OS; test: cell viability relative to DMSO; higher = less toxic

Compound	relative viability EC50 [1]	relative viability EC50 [2]	relative viability EC50 [3]	relative viability EC50 [4]	drug sensitivity score [5]	drug sensitivity score [6]	drug sensitivity score [7]	drug sensitivity score [8]	cell viability ([9]; 1 nM)	cell viability ([9]; 10 nM)	cell viability ([9]; 100 nM)	cell viability ([9]; 1000 nM)	cell viability ([9]; 10000 nM)	cell viability ([10]; 1 nM)	cell viability ([10]; 10 nM)	cell viability ([10]; 100 nM)	cell viability ([10]; 1000 nM)	cell viability ([10]; 10000 nM)	cell viability ([11]; 1 nM)	cell viability ([11]; 10 nM)	cell viability ([11]; 100 nM)	cell viability ([11]; 1000 nM)	cell viability ([11]; 10000 nM)	cell viability ([12]; 1 nM)	cell viability ([12]; 10 nM)	cell viability ([12]; 100 nM)	cell viability ([12]; 1000 nM)	cell viability ([12]; 10000 nM)	relative viability EC50 [13]	drug sensitivity score [14]	cell viability ([15]; 1 nM)	cell viability ([15]; 10 nM)	cell viability ([15]; 100 nM)	cell viability ([15]; 1000 nM)	cell viability ([15]; 10000 nM)
O=C1Nc2ccccc2/C1=C1/Nc2ccccc2C1=O [indirubin]	> 10 µM	> 10 µM	> 10 µM	> 10 µM	0	0	0	0	101%	100%	109%	94.8%	105%	101%	96.4%	97.5%	97.7%	98.1%	110%	110%	97.8%	94%	93.6%	116%	104%	109%	93.1%	119%	–	–	–	–	–	–	–
O=C(C(c1ccccc1)c1ccccc1)N1CCN(CC(O)COc2cccc3ncccc23)CC1 (centres undefined) [dofequidar]	> 10 µM	–	> 10 µM	> 10 µM	0.1	–	0	0	102%	99.9%	94.7%	103%	86.3%	–	–	–	–	–	95.7%	104%	105%	105%	102%	90.5%	97.8%	109%	129%	104%	> 10 µM	0	97.4%	102%	94.2%	102%	93.8%
O=C1C(O)=C([C@H]2CC[C@H](c3ccc(Cl)cc3)CC2)C(=O)c2ccccc21 [atovaquone]	> 10 µM	–	> 10 µM	> 10 µM	0	1.7	0	0	94.6%	103%	104%	102%	95.9%	95.2%	101%	101%	99.2%	66.3%	99.4%	90.2%	94.8%	98.9%	107%	102%	107%	92.2%	102%	108%	> 10 µM	0	96.8%	98.3%	96.5%	96.4%	92.8%
c1nc2c(NC3CCCCC3)nc(Nc3ccc(N4CCOCC4)cc3)nc2[nH]1 [reversine]	1.57 µM	–	0.401 µM	–	6	6.3	11.5	1	99.3%	93.6%	97.8%	84.1%	35.2%	104%	98.1%	103%	65.1%	58%	101%	89.9%	89.2%	46.3%	27.6%	102%	92.4%	103%	100%	73.4%	1.04 µM	8.9	99.9%	102%	99.4%	63.6%	23.1%
Cc1ccc2c(c1)C1(CCN(CCc3nc(-c4ccccc4)oc3C)CC1)OC(=O)N2	> 10 µM	–	> 10 µM	> 10 µM	0	1.8	1.6	0.4	97%	91.7%	93.3%	94.4%	87.7%	92.9%	101%	96.4%	94.4%	74.1%	101%	96%	96.7%	95.3%	75.4%	94.9%	103%	98.1%	98%	85.3%	> 10 µM	0	98.5%	96.5%	96.3%	94%	88.8%
O=C(O)C[CH2][Ge](=[O])[O][Ge](=[O])[CH2]CC(=O)O [propagermanium]	> 10 µM	–	> 10 µM	> 10 µM	0	–	0	0	108%	91.4%	106%	93.4%	100%	–	–	–	–	–	104%	106%	95.3%	96.8%	88%	102%	105%	95.6%	99.2%	105%	> 10 µM	0	101%	101%	99.1%	97.1%	97.5%
Cc1ccc(/C=C2\CNC/C(=C\c3ccc(C)cc3)C2=O)cc1	2.36 µM	–	3.24 µM	> 10 µM	4.3	2.4	4.8	0.5	103%	98.6%	94%	94.1%	38.8%	101%	97.9%	104%	103%	50.2%	119%	99.2%	110%	101%	12.4%	92.7%	112%	105%	104%	79%	3 µM	5.1	105%	106%	101%	98%	13.4%
